Test results as given in ChEMBL document CHEMBL1201862, “PubChem BioAssay data set” (2004).
Calls of active or inactive are those of the source.

Assays:
[1] = target: Glucose-6-phosphate 1-dehydrogenase (Homo sapiens, UniProt P11413); assay: human G6PD enzyme inhibitors, dose response, selectivity assay for P. falciparum G6PD inhibitor project, biochemical, fluorescence (AID 504792); type: functional
[2] = target: Beta-galactosidase (Escherichia coli, UniProt Q8VNN2); assay: beta-galactosidase enzyme inhibitors and activators, dose response, artefact control for CCR6 antagonist project, biochemical, E. coli enzyme, set 3 (AID 504712); type: functional
Chain of Beta-galactosidase (Q8VNN2 whole entry): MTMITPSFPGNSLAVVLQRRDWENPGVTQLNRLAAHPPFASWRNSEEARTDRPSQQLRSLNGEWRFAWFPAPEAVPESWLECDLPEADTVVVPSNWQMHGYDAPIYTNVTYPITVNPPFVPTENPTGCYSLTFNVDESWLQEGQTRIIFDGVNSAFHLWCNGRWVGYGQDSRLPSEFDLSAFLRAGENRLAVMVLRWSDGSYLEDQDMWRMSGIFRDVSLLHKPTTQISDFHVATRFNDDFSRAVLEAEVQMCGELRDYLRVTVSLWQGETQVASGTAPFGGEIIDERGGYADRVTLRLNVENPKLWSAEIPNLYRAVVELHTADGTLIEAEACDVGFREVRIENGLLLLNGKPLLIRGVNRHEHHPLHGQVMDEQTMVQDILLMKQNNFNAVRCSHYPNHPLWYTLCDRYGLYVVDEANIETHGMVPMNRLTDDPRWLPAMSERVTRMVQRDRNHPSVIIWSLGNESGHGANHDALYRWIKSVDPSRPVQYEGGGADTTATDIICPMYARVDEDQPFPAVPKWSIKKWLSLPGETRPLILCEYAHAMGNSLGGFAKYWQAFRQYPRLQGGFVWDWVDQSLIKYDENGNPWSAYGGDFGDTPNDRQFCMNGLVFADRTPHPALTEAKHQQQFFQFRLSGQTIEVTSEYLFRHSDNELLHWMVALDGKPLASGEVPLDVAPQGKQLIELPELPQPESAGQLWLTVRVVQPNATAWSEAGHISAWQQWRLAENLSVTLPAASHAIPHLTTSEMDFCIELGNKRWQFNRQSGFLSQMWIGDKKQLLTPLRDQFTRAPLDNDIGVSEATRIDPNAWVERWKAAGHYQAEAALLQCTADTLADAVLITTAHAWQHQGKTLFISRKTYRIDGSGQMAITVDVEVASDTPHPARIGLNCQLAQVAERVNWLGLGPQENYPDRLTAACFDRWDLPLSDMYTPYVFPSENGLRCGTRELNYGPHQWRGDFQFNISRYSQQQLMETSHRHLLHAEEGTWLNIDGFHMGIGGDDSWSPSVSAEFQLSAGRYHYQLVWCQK

[3] = target: T1, Hexokinase HKDC1 (Homo sapiens, UniProt Q2TB90); assay: HKDC1 hexokinase inhibitors, dose response, biochemical, W721R variant (AID 504729); type: functional
T1 sequence (Q2TB90 whole entry): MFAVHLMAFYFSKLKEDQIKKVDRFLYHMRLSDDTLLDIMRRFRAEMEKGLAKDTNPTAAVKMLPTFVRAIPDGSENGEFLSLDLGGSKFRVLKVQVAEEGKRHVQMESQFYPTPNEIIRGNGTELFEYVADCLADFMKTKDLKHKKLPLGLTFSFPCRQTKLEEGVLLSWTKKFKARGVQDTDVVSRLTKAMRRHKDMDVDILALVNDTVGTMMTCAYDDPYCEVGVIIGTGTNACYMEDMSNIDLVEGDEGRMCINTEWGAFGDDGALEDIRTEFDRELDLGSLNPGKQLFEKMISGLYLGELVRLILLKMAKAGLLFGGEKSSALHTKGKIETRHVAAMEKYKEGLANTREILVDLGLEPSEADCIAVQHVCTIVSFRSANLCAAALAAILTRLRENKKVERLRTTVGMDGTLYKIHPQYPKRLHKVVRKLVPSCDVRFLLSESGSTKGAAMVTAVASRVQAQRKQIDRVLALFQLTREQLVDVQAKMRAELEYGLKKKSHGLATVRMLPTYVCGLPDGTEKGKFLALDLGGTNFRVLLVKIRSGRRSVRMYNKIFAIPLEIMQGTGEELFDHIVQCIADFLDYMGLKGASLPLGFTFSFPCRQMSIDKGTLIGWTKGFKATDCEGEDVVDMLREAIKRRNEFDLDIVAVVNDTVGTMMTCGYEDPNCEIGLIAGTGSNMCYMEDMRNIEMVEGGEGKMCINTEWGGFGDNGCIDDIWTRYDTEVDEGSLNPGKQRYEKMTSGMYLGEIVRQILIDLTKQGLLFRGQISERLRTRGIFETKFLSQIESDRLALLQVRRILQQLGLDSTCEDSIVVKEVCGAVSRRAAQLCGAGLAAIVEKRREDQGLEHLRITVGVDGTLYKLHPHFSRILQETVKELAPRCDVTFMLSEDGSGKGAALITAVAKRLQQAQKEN

[4] = target: Genome polyprotein (dengue virus type 2, UniProt P29990); assay: Dengue-2 NS5 methyltransferase inhibitors, primary screen, biochemical, confirmation dose response (AID 588689); type: functional
Chain of Genome polyprotein (P29990 2492-3391 limits assumed): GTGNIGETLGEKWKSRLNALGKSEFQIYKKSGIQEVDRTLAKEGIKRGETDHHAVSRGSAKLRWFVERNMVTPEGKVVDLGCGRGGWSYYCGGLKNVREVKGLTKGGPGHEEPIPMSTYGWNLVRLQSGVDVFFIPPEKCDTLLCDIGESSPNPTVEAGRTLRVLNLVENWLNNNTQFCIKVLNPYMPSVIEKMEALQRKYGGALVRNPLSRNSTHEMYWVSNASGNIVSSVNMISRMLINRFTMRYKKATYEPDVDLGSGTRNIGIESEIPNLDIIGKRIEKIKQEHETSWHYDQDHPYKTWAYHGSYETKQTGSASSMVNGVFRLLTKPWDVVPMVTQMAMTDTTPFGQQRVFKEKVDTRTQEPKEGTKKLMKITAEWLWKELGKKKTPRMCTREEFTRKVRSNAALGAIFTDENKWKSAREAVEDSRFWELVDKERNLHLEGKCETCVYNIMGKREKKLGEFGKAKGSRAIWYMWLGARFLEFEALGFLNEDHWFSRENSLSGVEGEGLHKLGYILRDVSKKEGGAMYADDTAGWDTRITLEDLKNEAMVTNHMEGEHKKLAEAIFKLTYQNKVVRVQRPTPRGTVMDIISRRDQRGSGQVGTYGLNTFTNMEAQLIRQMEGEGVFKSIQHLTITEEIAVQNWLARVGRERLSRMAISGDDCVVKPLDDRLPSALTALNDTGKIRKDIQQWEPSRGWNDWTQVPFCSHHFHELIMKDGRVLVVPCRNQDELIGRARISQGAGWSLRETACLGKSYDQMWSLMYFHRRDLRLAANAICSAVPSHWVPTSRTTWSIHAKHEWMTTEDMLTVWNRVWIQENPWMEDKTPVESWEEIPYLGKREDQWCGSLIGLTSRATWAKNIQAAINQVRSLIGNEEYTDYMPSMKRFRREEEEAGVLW

[5] = THP-1 cell cytotoxicity, dose response, cytotoxicity control for Vif-APOBEC3G degradation inhibitor project, THP-1 cells (AID 1117359); type: functional; conditions: Human immunodeficiency virus 1, THP-1
[6] = target: Trypsin (Sus scrofa, UniProt P00761); assay: porcine trypsin inhibitors, dose response, selectivity assay for Rce1 protease inhibitor project, biochemical, quenched peptide fluorescence, cherry-pick (AID 488789)
Chain of Trypsin (P00761 whole entry): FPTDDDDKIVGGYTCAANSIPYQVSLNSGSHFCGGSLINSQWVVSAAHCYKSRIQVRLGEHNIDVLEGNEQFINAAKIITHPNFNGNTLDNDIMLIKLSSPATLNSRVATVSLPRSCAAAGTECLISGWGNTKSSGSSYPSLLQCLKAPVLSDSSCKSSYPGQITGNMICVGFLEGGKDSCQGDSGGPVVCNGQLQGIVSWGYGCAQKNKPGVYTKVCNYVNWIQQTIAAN

[7] = target: T2, CAAX prenyl protease 2 (Saccharomyces cerevisiae S288c, UniProt Q03530); type: biochemical
T2 sequence (Q03530 whole entry): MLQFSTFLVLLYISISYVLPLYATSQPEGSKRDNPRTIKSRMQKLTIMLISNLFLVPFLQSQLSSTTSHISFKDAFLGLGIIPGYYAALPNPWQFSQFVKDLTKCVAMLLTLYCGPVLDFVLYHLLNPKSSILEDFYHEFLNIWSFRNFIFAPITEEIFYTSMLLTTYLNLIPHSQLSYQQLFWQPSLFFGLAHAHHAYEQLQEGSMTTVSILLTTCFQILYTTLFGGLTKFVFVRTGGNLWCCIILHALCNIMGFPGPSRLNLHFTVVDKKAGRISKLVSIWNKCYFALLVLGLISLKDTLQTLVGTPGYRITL

[8] = tested on: HEK293; assay: NOD1 signaling inhibitors, primary screen, cell-based, luminescence, uHTS (AID 1578); type: functional; conditions: Homo sapiens
[9] = tested on: HEK293; assay: cells; type: functional, cell-based; conditions: Homo sapiens
[10] = tested on: HEK293; assay: cells; type: functional, cell-based; conditions: Homo sapiens; remark: listed apart in the source
[11] = target: Nucleotide-binding oligomerization domain-containing protein 2 (Homo sapiens, UniProt Q9HC29); assay: NOD2 signaling inhibitors, cell-based, luminescence, uHTS, HEK293 (AID 1566); type: functional
Chain of Nucleotide-binding oligomerization domain-containing protein 2 (Q9HC29 whole entry, the tested form may be a part): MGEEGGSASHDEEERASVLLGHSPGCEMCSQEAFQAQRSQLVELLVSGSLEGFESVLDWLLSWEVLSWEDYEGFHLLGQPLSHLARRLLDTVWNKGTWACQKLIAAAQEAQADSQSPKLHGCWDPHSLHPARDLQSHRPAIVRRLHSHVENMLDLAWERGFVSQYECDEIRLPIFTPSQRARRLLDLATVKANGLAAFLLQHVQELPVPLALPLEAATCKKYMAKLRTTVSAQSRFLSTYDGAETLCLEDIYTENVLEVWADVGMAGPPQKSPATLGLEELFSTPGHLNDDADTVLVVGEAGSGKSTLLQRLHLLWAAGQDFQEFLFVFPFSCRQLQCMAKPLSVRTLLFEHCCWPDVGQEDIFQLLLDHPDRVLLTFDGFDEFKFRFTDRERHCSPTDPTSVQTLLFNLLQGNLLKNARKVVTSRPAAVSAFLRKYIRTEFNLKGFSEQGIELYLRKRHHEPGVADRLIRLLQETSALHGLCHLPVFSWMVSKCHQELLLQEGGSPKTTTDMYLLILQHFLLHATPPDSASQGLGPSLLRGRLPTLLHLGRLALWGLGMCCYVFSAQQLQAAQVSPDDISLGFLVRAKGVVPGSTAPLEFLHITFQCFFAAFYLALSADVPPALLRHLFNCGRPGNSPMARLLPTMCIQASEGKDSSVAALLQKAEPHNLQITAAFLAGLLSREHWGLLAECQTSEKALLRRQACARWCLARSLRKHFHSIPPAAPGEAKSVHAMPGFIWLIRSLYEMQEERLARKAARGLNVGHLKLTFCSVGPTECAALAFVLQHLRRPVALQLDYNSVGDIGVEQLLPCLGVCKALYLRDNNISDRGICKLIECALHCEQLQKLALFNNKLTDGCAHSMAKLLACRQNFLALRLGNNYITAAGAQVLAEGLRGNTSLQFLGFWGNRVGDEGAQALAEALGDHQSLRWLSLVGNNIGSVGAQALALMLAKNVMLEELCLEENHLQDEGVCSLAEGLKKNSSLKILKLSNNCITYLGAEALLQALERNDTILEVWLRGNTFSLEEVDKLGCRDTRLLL

[12] = tested on: HEK293; assay: NOD2 signaling inhibitors in MDP-stimulated cells, cell-based, uHTS, luminescence (AID 2001); type: functional; conditions: Homo sapiens
[13] = tested on: HEK293; assay: cells; type: functional, cell-based; conditions: Homo sapiens; remark: listed apart in the source
[14] = target: Tumor necrosis factor (Homo sapiens, UniProt P01375); assay: TNFa-triggered NF-kB activation inhibitors, SAR follow-up, cell-based, revised (AID 2337); type: functional
Chain of Tumor necrosis factor (P01375 whole entry, the tested form may be a part): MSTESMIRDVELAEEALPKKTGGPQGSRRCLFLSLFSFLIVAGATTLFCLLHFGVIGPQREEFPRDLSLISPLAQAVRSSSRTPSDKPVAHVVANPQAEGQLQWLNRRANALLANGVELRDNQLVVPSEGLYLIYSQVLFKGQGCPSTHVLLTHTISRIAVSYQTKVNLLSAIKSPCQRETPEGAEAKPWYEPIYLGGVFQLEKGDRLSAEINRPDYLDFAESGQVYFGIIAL

[15] = target: T3, Nucleotide-binding oligomerization domain-containing protein 1 (Homo sapiens, UniProt Q9Y239); assay: NOD1 signaling inhibitors, SAR follow-up, revised (AID 2333); type: functional
T3 sequence (Q9Y239 whole entry): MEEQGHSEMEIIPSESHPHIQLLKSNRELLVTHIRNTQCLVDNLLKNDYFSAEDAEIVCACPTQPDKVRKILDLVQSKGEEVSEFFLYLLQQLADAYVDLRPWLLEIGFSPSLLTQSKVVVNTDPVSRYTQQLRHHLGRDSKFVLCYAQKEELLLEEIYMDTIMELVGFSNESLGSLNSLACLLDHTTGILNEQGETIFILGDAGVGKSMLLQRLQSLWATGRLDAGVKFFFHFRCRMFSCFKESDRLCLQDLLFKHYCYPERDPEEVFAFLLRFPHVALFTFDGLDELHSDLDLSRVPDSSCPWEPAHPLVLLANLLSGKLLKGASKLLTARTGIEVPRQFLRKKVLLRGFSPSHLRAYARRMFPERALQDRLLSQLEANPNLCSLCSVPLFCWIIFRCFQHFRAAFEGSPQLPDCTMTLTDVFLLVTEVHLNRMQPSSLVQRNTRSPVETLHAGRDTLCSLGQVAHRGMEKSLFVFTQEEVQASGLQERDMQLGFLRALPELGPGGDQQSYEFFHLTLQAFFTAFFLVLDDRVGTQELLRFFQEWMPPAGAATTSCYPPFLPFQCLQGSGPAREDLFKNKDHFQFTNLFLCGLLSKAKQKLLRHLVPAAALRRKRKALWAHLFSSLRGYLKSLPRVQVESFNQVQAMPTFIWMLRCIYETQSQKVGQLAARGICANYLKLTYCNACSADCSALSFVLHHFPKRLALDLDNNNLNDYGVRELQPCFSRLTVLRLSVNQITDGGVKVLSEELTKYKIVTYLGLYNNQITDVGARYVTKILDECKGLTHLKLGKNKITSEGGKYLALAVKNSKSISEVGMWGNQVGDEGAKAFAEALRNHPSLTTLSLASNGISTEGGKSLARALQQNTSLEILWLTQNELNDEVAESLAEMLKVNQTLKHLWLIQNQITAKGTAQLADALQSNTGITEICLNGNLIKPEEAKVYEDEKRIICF

[16] = tested on: HEK293; assay: cells; conditions: Homo sapiens
[17] = Luminescence Cell-Based Dose Retest to Confirm Inhibitors of Cancer Stem Cells. [Related pubchem assays (depositor defined):AID2717, AID2721]; type: functional; conditions: Homo sapiens
[18] = tested on: BJ; assay: cytotoxicity toward BJ-TERT fibroblasts, dose response, cell-based, RAS-independent, luminescence (AID 1933); type: functional; conditions: Homo sapiens
[19] = tested on: BJ; assay: cells; type: functional, cell-based; conditions: Homo sapiens
[20] = tested on: BJ; assay: cytotoxicity toward BJ-TERT-LT-ST fibroblasts, dose response, cell-based, RAS-independent, luminescence (AID 1935); type: functional; conditions: Homo sapiens;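 further: BJ fibroblasts immortalized with TERT plus LT and ST oncogenes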
[21] = cytotoxicity toward DRD oncogenic fibroblasts, dose response, cell-based, non-viral oncogenic, luminescence (AID 1934); type: functional; conditions: Homo sapiens
[22] = target: G-protein coupled receptor 55 (Homo sapiens, UniProt Q9Y2T6); assay: GPR55 agonists via beta-arrestin recruitment, primary screen, imaging, U2OS cells, beta-arrestin-GFP redistribution (AID 1961); type: functional
Chain of G-protein coupled receptor 55 (Q9Y2T6 whole entry): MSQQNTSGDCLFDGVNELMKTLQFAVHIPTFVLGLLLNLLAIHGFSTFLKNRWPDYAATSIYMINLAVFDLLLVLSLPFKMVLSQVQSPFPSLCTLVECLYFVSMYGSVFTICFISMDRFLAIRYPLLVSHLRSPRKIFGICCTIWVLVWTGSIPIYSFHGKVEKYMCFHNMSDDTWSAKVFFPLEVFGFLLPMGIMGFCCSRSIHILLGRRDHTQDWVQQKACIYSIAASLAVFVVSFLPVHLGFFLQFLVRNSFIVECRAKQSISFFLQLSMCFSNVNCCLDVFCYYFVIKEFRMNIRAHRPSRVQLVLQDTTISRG

[23] = target: T4, Microphthalmia-associated transcription factor (Homo sapiens, UniProt O75030); assay: TRPM1 promoter luciferase signal decrease, dose response, MITF inhibitor project, cell-based, SK-MEL-5, cherry-picked, set 3 (AID 493073); type: functional
T4 sequence (O75030 whole entry): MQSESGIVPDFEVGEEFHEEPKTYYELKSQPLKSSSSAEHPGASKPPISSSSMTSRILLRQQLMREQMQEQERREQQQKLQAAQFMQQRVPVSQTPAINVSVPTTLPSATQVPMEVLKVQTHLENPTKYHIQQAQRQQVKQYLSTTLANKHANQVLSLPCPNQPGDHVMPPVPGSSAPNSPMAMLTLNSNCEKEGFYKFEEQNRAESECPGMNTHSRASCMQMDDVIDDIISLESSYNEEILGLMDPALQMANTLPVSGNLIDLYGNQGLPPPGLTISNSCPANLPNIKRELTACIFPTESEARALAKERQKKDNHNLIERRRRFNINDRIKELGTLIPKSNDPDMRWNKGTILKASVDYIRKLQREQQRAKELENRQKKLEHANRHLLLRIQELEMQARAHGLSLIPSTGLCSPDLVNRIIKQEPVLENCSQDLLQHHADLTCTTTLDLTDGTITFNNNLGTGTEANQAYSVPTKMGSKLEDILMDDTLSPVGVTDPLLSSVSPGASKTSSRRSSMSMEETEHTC

[24] = tested on: Vero; assay: cytotoxicity of synthesized analogs in Vero cells, SAR follow-up, cytotoxicity control for West Nile virus antiviral project, cell-based, set II (AID 2402); type: functional; conditions: Chlorocebus sabaeus
[25] = tested on: Vero; assay: West Nile virus CPE inhibition, SAR follow-up, cell-based, synthesized analogs (AID 2238); type: functional; conditions: Chlorocebus sabaeus
[26] = tested on: Vero; assay: West Nile virus antiviral activity, cell-based, CPE readout (AID 1621); type: functional; conditions: Chlorocebus sabaeus
[27] = inhibitors of intracellular T. cruzi replication, confirmation, NIH3T3 host cells, beta-gal luminescence (AID 2044); type: functional, cell-based;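 further: intracellular parasites grown in NIH/3T3 mouse fibroblasts as host cells; luminescent beta-galactosidase reporter signal from transgenic T. cruzi replicating inside host cells; inhibitors lower the luminescence signal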
[28] = microbe, parasite or virus in culture; type: functional; conditions: Mycobacterium tuberculosis
[29] = cytotoxicity toward NIH3T3 fibroblasts, dose response, counter-screen, cell-based, ATP luminescence, mouse fibroblasts (AID 2010); type: functional;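 further: cells exposed to compound for about 90 hours before reading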
[30] = THP-1 cell cytotoxicity, dose response, cytotoxicity control for non-replicating M. tuberculosis project (AID 489025); type: functional
[31] = Vero E6 cell cytotoxicity, dose response, cytotoxicity control for non-replicating M. tuberculosis project, secondary assay (AID 492998); type: functional, VeroE6; conditions: Vero C1008
[32] = cells; type: functional
[33] = target: Nuclear receptor subfamily 5 group A member 2 (Homo sapiens, UniProt O00482); type: functional, cell-based;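 further: HEK293T cells transfected with LRH-1 and a StAR promoter luciferase reporter; potency for inhibitors that lower LRH-1 driven reporter light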
Chain of Nuclear receptor subfamily 5 group A member 2 (O00482 whole entry): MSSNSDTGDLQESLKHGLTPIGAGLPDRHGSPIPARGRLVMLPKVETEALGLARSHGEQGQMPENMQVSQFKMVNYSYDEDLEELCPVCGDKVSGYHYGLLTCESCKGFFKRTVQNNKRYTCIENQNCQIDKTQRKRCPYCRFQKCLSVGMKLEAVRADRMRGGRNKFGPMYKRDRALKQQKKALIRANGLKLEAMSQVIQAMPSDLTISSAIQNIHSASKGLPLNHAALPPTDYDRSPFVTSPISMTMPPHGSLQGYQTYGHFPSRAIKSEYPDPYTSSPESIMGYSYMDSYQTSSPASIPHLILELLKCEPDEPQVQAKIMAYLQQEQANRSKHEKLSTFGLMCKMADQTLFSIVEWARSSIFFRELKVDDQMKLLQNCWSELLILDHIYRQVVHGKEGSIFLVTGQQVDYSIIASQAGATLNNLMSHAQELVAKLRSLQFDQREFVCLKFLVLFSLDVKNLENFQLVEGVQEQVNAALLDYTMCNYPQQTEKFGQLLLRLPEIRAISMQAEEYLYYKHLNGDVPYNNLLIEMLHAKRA

[34] = target: Steroidogenic factor 1 (Homo sapiens, UniProt Q13285); assay: Counterscreen for inverse agonists of the liver receptor homolog-1 (LRH-1; NR5A2): Luminescence-based cell-based high throughput dose response assay to identify inverse agonists of the Steroidogenic Factor 1 Nuclear Receptor (SF1; NR5A1).; type: functional
[35] = StAR promoter reporter inhibition counter-screen, dose response, counter-screen for LRH-1 inverse agonist project, cell-based, luminescence, luciferase reporter (AID 651969); type: functional
[36] = cells

Chain of Glucose-6-phosphate 1-dehydrogenase (P11413 whole entry): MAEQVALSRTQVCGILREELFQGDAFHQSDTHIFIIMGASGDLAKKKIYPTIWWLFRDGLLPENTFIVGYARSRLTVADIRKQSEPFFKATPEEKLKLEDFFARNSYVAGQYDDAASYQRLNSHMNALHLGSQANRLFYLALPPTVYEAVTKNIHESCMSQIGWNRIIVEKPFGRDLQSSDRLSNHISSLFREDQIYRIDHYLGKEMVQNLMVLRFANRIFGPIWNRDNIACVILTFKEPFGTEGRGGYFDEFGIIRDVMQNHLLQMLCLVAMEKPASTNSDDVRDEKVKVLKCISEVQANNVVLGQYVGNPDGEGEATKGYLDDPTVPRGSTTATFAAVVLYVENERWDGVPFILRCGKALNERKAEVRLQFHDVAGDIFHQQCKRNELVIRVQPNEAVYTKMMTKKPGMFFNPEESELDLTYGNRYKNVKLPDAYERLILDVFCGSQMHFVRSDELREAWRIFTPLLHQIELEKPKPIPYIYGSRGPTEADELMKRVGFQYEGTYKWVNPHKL

Compound: COC1=C(OC)C(=O)C(Sc2ccc3ccccc3c2)=CC1=O
- IC50 [1]: 18.7 µM (active)
- IC50 [2]: > 66.6 µM (inactive)
- IC50 [3]: 3.33 µM (active)
- IC50 [4]: 5.09 µM (active)
- CC50 [5]: > 40 µM (active)

Compound: Cc1cc(-c2ccccc2)n2nc(C)c(C#N)c2n1
- AC50 [6]: 3.3 µM (active)
- AC50 [7]: 15.5 µM (active)

Compound: Cc1cccc(-n2ncc3c2CCCC3NC(=O)C2(C(N)=O)CC2)c1C (centres undefined)
- EC50 [8]: 2.53 µM (active)
- IC50 [9]: 9.93 µM (active)
- IC50 [10]: > 20 µM (inactive)
- EC50 [11]: 19.7 µM (active)
- IC50 [12]: 16.2 µM (inactive)
- IC50 [13]: > 20 µM (inactive)
- IC50 [14]: 14.5 µM (active)
- IC50 [15]: 4.31 µM (active)
- IC50 [16]: > 20 µM (inactive)

Compound: Cc1ccc(C(NC(=O)C(C)C)c2cc([N+](=O)[O-])c3cccnc3c2O)cc1 (centres undefined)
- AC50 [17]: 1.02 µM (active)
- IC50 [2]: > 66.6 µM (inactive)

Compound: O=C1NC(=O)N(Cc2ccccc2)C(=O)/C1=C/C=C/c1ccco1
- EC50 [8]: > 20 µM (inactive)
- EC50 [18]: 5.74 µM (inconclusive)
- IC50 [9]: 17.5 µM (active)
- EC50 [19]: 8.18 µM (active)
- IC50 [10]: > 20 µM (inactive)
- EC50 [11]: > 20 µM (inactive)
- IC50 [12]: > 20 µM (inactive)
- IC50 [13]: > 20 µM (inactive)
- EC50 [20]: 4.14 µM (active)
- EC50 [21]: 5.85 µM (inconclusive)
- EC50 [22]: > 32 µM (inactive)
- AC50 [17]: 1.47 µM (active)
- AC50 [23]: 4.85 µM (active)

Compound: O=C(CSc1nc2ccccc2c(=O)n1-c1ccc(F)cc1F)Nc1ccc(N2CCOCC2)cc1
- CC50 [24]: > 200 µM (active)
- IC50 [25]: 38.1 µM (active)
- IC50 [26]: 26.7 µM (active)

Compound: Cc1onc(-c2c(F)cccc2Cl)c1C(=O)ON=C(N)c1ccc([N+](=O)[O-])o1
- EC50 [27]: < 0.1 µM (active)
- CC50 [28]: 21.2 µM (active)
- EC50 [29]: 12.7 µM (active)
- CC50 [30]: 17.8 µM (active)
- CC50 [31]: > 20 µM (active)
- IC50 [32]: 4.6 µM (active)
- IC50 [33]: 0.143 µM (active)
- IC50 [34]: 0.143 µM (active)
- IC50 [35]: 35.9 µM (inactive)
- EC50 [36]: 0.015 µM (active)
